Literature values, collected in patent US20240200062A1, “METHODS OF TREATING DUCHENNE MUSCULAR DYSTROPHY USING PEPTIDE-OLIGONUCLEOTIDE CONJUGATES” (PepGen Inc., priority 2021, published 2024).

System: dystrophin
Conditions: in vivo; cited from earlier work

eteplirsen
levels of dystrophin restoration: approximately 1 % of normal dystrophin levels
